US6737383B1, “Herbicidal oxadiazolidines” (priority 1999, dated 2004)

Legend:
wheat = assay: Test B pre/postemergence wheat; format: in vivo, Triticum aestivum; conditions: for Plant response rating, Wheat: scale of 0 to 10 where 0 is no effect and 10 is complete control
Summary of the method: (§1)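 Test chemicals in a non-phytotoxic solvent mixture with surfactant were sprayed preemergence onto planted seeds and postemergence onto plants 2 to 18 cm tall (1- to 4-leaf stage). After twelve to sixteen days in a greenhouse, injury was visually rated against untreated controls from 0 (no effect) to 10 (complete control).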

corn = assay: Test B pre/postemergence corn; format: in vivo, Zea mays
Summary of the method: as §1

cocklebur = assay: Test B pre/postemergence cocklebur; format: in vivo, Xanthium strumarium
Summary of the method: as §1

soybean = assay: Test B pre/postemergence soybean; format: in vivo, Glycine max; conditions: for Plant response rating, Soybean: scale of 0 to 10 where 0 is no effect and 10 is complete control
Summary of the method: as §1

surinam grass = assay: Test B pre/postemergence surinam grass; format: in vivo, Brachiaria decumbens
Summary of the method: as §1

bamyardgrass = assay: Test B flood test barnyardgrass; format: in vivo, Echinochloa crus-galli
Summary of the method: (§2)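 Plants were grown to the 2-leaf stage before treatment with test chemical, then held in a greenhouse for twelve to sixteen days. Injury was visually rated against untreated controls on a 0–10 scale, where 0 is no effect and 10 is complete control.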

smallflower flatsedge = assay: Test B flood test smallflower flatsedge; format: in vivo, Cyperus difformis
Summary of the method: as §2

giant foxtail = assay: Test B pre/postemergence giant foxtail; format: in vivo, Setaria faberii
Summary of the method: as §1

morningglory = assay: Test B pre/postemergence morningglory; format: in vivo, Ipomoea hederacea; conditions: for Plant response rating, Morningglory: scale of 0 to 10 where 0 is no effect and 10 is complete control
Summary of the method: as §1

wild oat = assay: Test B pre/postemergence wild oat; format: in vivo, Avena fatua; conditions: for Plant response rating, Wild oats: scale of 0 to 10 where 0 is no effect and 10 is complete control
Summary of the method: as §1

velvetleaf = assay: Test B pre/postemergence velvetleaf; format: in vivo, Abutilon theophrasti; conditions: for Plant response rating, Velvetleaf: scale of 0 to 10 where 0 is no effect and 10 is complete control
Summary of the method: as §1

pigweed = assay: Test B pre/postemergence pigweed; format: in vivo, Amaranthus retroflexus; conditions: for Plant response rating, Redroot pigweed: scale of 0 to 10 where 0 is no effect and 10 is complete control
Summary of the method: as §1

duck salad = assay: Test B flood test duck salad; format: in vivo, Heteranthera limosa
Summary of the method: as §2

rice = assay: Test B flood test rice; format: in vivo, Oryza sativa
Summary of the method: as §2

rape = assay: Test B pre/postemergence rape; format: in vivo, Brassica napus; conditions: for Plant response rating, Rape: scale of 0 to 10 where 0 is no effect and 10 is complete control
Summary of the method: as §1

sugar beet = assay: Test B pre/postemergence sugar beet; format: in vivo, Beta vulgaris; conditions: for Plant response rating, Sugarbeets: scale of 0 to 10 where 0 is no effect and 10 is complete control
Summary of the method: as §1

[1] = Postemergence, Rate 250 g/ha, scale 0 to 10
[2] = Preemergence, Rate 250 g/ha, scale 0 to 10, 0 is no effect, 10 is complete control
[3] = Preemergence, Rate 500 g/ha, scale 0 to 10, 0 is no effect, 10 is complete control
[4] = Rate 62 g/ha, Postemergence, scale 0 to 10 (0 no effect, 10 complete control)
[5] = Rate 125 g/ha, Postemergence, scale 0 to 10, 0 is no effect, 10 is complete control
[6] = Postemergence, Rate 500 g/ha, scale of 0 to 10 where 0 is no effect and 10 is complete control
[7] = Preemergence, Rate 62 g/ha, scale of 0 to 10 where 0 is no effect and 10 is complete control
[8] = Preemergence, Rate 125 g/ha, scale of 0 to 10 where 0 is no effect and 10 is complete control
[9] = Rate 62 g/ha, flood test species, Pre-emergence, visual evaluation after twelve to sixteen days
[10] = Rate 125 g/ha, under heading Pre-emergence, flood test species, visual evaluation after twelve to sixteen days
[11] = Rate 250 g/ha, Pre-emergence (flood test species), scale 0 to 10, 0 is no effect, 10 is complete control
[12] = Rate 500 g/ha, Pre-emergence, flood test species, scale 0 to 10 (0 no effect, 10 complete control)

C=CC(CC)n1c(=O)on(C(=O)N(c2ccccc2)C(C)C)c1=O (centres unmarked) [Compound 455]
2: Wheat plant response rating (wheat; [3]) | Plant response rating, Corn (corn; [8]) | Soybean plant response rating (soybean; [3]) | Soybean plant response rating (soybean; [5]) | Plant response rating, Velvetleaf (velvetleaf; Preemergence, Rate 62 g/ha) | Redroot pigweed plant response rating (pigweed; [4]) | Redroot pigweed plant response rating (pigweed; [5])
4: Corn plant response rating (corn; [2]) | Soybean plant response rating (soybean; [1]) | Morningglory plant response rating (morningglory; [3]) | Plant response rating, Velvetleaf (velvetleaf; Preemergence, Rate 125 g/ha)
7: Corn plant response rating (corn; [3]) | Giant foxtail plant response rating (giant foxtail; [1]) | Giant foxtail plant response rating (giant foxtail; [4]) | Giant foxtail plant response rating (giant foxtail; [5]) | Plant response rating, Redroot pigweed (pigweed; Preemergence, Rate 62 g/ha)
6: Velvetleaf plant response rating (velvetleaf; [3]) | Sugarbeets plant response rating (sugar beet; [3])
10: Plant response rating, Giant foxtail (giant foxtail; [7]) | Plant response rating, Giant foxtail (giant foxtail; [8]) | Giant foxtail plant response rating (giant foxtail; [2]) | Giant foxtail plant response rating (giant foxtail; [3]) | Wild oats plant response rating (wild oat; [3]) | Plant response rating, Redroot pigweed (pigweed; Preemergence, Rate 125 g/ha) | Redroot pigweed plant response rating (pigweed; [2]) | Redroot pigweed plant response rating (pigweed; [3])
9: B. signalgrass plant response rating (surinam grass; [2]) | B. signalgrass plant response rating (surinam grass; [3]) | Giant foxtail plant response rating (giant foxtail; [6]) | Wild oats plant response rating (wild oat; [2]) | Rape plant response rating (rape; [3])
8: Morningglory plant response rating (morningglory; [1]) | Morningglory plant response rating (morningglory; [5]) | Rape plant response rating (rape; [2])
1: Soybean plant response rating (soybean; [4]) | B. signalgrass plant response rating (surinam grass; Postemergence, Rate 250 g/ha, scale 0 to 10, 0 no effect, 10 complete control) | Plant response rating, Sugarbeets (sugar beet; Preemergence, Rate 125 g/ha)
3: Plant response rating, B. signalgrass (surinam grass; [8]) | Morningglory plant response rating (morningglory; [4]) | Plant response rating, Wild oats (wild oat; Preemergence, Rate 125 g/ha) | Velvetleaf plant response rating (velvetleaf; [1]) | Plant response rating, Rape (rape; Preemergence, Rate 125 g/ha) | Sugarbeets plant response rating (sugar beet; [2])
0: Wheat plant response rating (wheat; [1]) | Plant response rating, Wheat (wheat; Preemergence, Rate 62 g/ha) | Plant response rating, Wheat (wheat; Preemergence, Rate 125 g/ha) | Wheat plant response rating (wheat; [2]) | Wheat plant response rating (wheat; [4]) | Wheat plant response rating (wheat; [5]) | Corn plant response rating (corn; [1]) | Corn plant response rating (corn; [6]) | Plant response rating, Corn (corn; [7]) | Corn plant response rating (corn; [4]) | Corn plant response rating (corn; [5]) | Cocklebur plant response rating (cocklebur; [1]) | Cocklebur plant response rating (cocklebur; [6]) | Plant response rating, Cocklebur (cocklebur; [7]) | Plant response rating, Cocklebur (cocklebur; [8]) | Cocklebur plant response rating (cocklebur; [2]) | Cocklebur plant response rating (cocklebur; [3]) | Cocklebur plant response rating (cocklebur; [4]) | Cocklebur plant response rating (cocklebur; [5]) | Plant response rating, Soybean (soybean; Preemergence, Rate 62 g/ha) | Plant response rating, Soybean (soybean; Preemergence, Rate 125 g/ha) | Soybean plant response rating (soybean; [2]) | Plant response rating, B. signalgrass (surinam grass; [7]) | B. signalgrass plant response rating (surinam grass; [4]) | B. signalgrass plant response rating (surinam grass; [5]) | Plant response rating, Barnyardgrass (0 to 10 scale, 0 is no effect, 10 is complete control) (bamyardgrass; [9]) | Barnyardgrass plant response rating (0 to 10 scale, 0 is no effect, 10 is complete control) (bamyardgrass; [10]) | Barnyardgrass plant response rating (bamyardgrass; [11]) | Barnyardgrass plant response rating (bamyardgrass; [12]) | Plant response rating, S. Flatsedge (0 to 10 scale, 0 is no effect, 10 is complete control) (smallflower flatsedge; [9]) | S. Flatsedge plant response rating (0 to 10 scale, 0 is no effect, 10 is complete control) (smallflower flatsedge; [10]) | S. Flatsedge plant response rating (smallflower flatsedge; [11]) | S. Flatsedge plant response rating (smallflower flatsedge; [12]) | Plant response rating, Morningglory (morningglory; Preemergence, Rate 62 g/ha) | Plant response rating, Morningglory (morningglory; Preemergence, Rate 125 g/ha) | Morningglory plant response rating (morningglory; [2]) | Wild oats plant response rating (wild oat; [1]) | Plant response rating, Wild oats (wild oat; Preemergence, Rate 62 g/ha) | Wild oats plant response rating (wild oat; [4]) | Wild oats plant response rating (wild oat; [5]) | Velvetleaf plant response rating (velvetleaf; [4]) | Velvetleaf plant response rating (velvetleaf; [5]) | Plant response rating, Ducksalad (0 to 10 scale, 0 is no effect, 10 is complete control) (duck salad; [9]) | Ducksalad plant response rating (0 to 10 scale, 0 is no effect, 10 is complete control) (duck salad; [10]) | Ducksalad plant response rating (duck salad; [11]) | Ducksalad plant response rating (duck salad; [12]) | Plant response rating, Rice (0 to 10 scale, 0 is no effect, 10 is complete control) (rice; [9]) | Rice plant response rating (0 to 10 scale, 0 is no effect, 10 is complete control) (rice; [10]) | Rice plant response rating (rice; [11]) | Rice plant response rating (rice; [12]) | Rape plant response rating (rape; [1]) | Plant response rating, Rape (rape; Preemergence, Rate 62 g/ha) | Rape plant response rating (rape; [4]) | Rape plant response rating (rape; [5]) | Sugarbeets plant response rating (sugar beet; [1]) | Plant response rating, Sugarbeets (sugar beet; Preemergence, Rate 62 g/ha) | Sugarbeets plant response rating (sugar beet; [4]) | Sugarbeets plant response rating (sugar beet; [5])
5: B. signalgrass plant response rating (surinam grass; [6]) | Velvetleaf plant response rating (velvetleaf; [2]) | Redroot pigweed plant response rating (pigweed; [1])
